Laboratory results taken from the supplement of paper PMC13207355.

How the values were obtained:
Settings in all cases: exposure time: 72 h
[1] = tested on: E13 (patient-derived glioblastoma stem cells of classical subtype); assay: surviving fraction (nuclei count normalised to DMSO); higher = more cells surviving (less toxic)
[2] = tested on: E21 (patient-derived glioblastoma stem cells of mesenchymal subtype); assay: as above
[3] = tested on: E28 (patient-derived glioblastoma stem cells of classical subtype); assay: as above
[4] = tested on: E31 (patient-derived glioblastoma stem cells of proneural subtype); assay: as above
[5] = tested on: E34 (patient-derived glioblastoma stem cells of proneural subtype); assay: as above
[6] = tested on: E57 (patient-derived glioblastoma stem cells of mesenchymal subtype); assay: as above
[7] = tested on: FT3469 (normal neural stem cell line); assay: as above
[8] = tested on: E13; assay: phenotypic distance (Euclidean, principal components) from DMSO controls (arbitrary units); higher = stronger morphological change
[9] = tested on: E21; assay: as above
[10] = tested on: E28; assay: as above
[11] = tested on: E31; assay: as above
[12] = tested on: E34; assay: as above
[13] = tested on: E57; assay: as above
[14] = tested on: FT3469; assay: as above
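For phenotypic distance (Euclidean, principal components) from DMSO controls in this document: cell Painting imaging in 384-well plates, CellProfiler features reduced to at least 20 principal components, Euclidean distance versus same-plate DMSO vehicle wells (0.1% v/v), median over six images per well.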
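For surviving fraction (nuclei count normalised to DMSO) in this document: nuclei counted by high-content imaging of Hoechst-stained cells in laminin-coated 384-well plates, relative to 0.1% DMSO vehicle wells, with staurosporine as cell-death control.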

Cc1c2ccncc2c(C)c2c1[nH]c1ccccc12 [Ellipticine]
Settings | phenotypic distance | surviving fraction
[1], 4.1 nM | – | 1.06
[1], 12.3 nM | – | 0.896
[1], 37 nM | – | 0.936
[1], 111.1 nM | – | 0.958
[1], 333.3 nM | – | 0.912
[1], 1000 nM | – | 0.784
[1], 3000 nM | – | 0.473
[2], 4.1 nM | – | 0.991
[2], 12.3 nM | – | 1.07
[2], 37 nM | – | 0.888
[2], 111.1 nM | – | 0.831
[2], 333.3 nM | – | 0.754
[2], 1000 nM | – | 0.72
[2], 3000 nM | – | 0.499
[3], 4.1 nM | – | 1.11
[3], 12.3 nM | – | 1.11
[3], 37 nM | – | 1.08
[3], 111.1 nM | – | 1.05
[3], 333.3 nM | – | 0.967
[3], 1000 nM | – | 0.668
[3], 3000 nM | – | 0.352
[4], 4.1 nM | – | 1.02
[4], 12.3 nM | – | 0.977
[4], 37 nM | – | 1.07
[4], 111.1 nM | – | 0.963
[4], 333.3 nM | – | 0.768
[4], 1000 nM | – | 0.648
[4], 3000 nM | – | 0.395
[5], 4.1 nM | – | 1.07
[5], 12.3 nM | – | 0.94
[5], 37 nM | – | 1.04
[5], 111.1 nM | – | 0.952
[5], 333.3 nM | – | 0.935
[5], 1000 nM | – | 0.753
[5], 3000 nM | – | 0.534
[6], 4.1 nM | – | 0.88
[6], 12.3 nM | – | 0.933
[6], 37 nM | – | 0.926
[6], 111.1 nM | – | 0.959
[6], 333.3 nM | – | 0.867
[6], 1000 nM | – | 0.784
[6], 3000 nM | – | 0.409
[7], 4.1 nM | – | 1.13
[7], 12.3 nM | – | 1.11
[7], 37 nM | – | 1.08
[7], 111.1 nM | – | 1.11
[7], 333.3 nM | – | 1.3
[7], 1000 nM | – | 0.787
[7], 3000 nM | – | 0.649
[8], 4.1 nM | 0.815 | –
[8], 12.3 nM | 0.556 | –
[8], 37 nM | 0.741 | –
[8], 111.1 nM | 0.932 | –
[8], 333.3 nM | 1.52 | –
[8], 1000 nM | 2.23 | –
[8], 3000 nM | 4.47 | –
[9], 4.1 nM | 1.16 | –
[9], 12.3 nM | 1.17 | –
[9], 37 nM | 1.79 | –
[9], 111.1 nM | 2.04 | –
[9], 333.3 nM | 2.29 | –
[9], 1000 nM | 2.28 | –
[9], 3000 nM | 2.98 | –
[10], 4.1 nM | 0.578 | –
[10], 12.3 nM | 0.641 | –
[10], 37 nM | 0.588 | –
[10], 111.1 nM | 0.478 | –
[10], 333.3 nM | 0.804 | –
[10], 1000 nM | 1.01 | –
[10], 3000 nM | 2.73 | –
[11], 4.1 nM | 0.486 | –
[11], 12.3 nM | 0.52 | –
[11], 37 nM | 0.379 | –
[11], 111.1 nM | 0.662 | –
[11], 333.3 nM | 0.789 | –
[11], 1000 nM | 1.24 | –
[11], 3000 nM | 2.27 | –
[12], 4.1 nM | 0.723 | –
[12], 12.3 nM | 0.43 | –
[12], 37 nM | 0.492 | –
[12], 111.1 nM | 0.978 | –
[12], 333.3 nM | 1.01 | –
[12], 1000 nM | 1.43 | –
[12], 3000 nM | 2.39 | –
[13], 4.1 nM | 1.05 | –
[13], 12.3 nM | 0.752 | –
[13], 37 nM | 1.12 | –
[13], 111.1 nM | 1.64 | –
[13], 333.3 nM | 1.87 | –
[13], 1000 nM | 2.3 | –
[13], 3000 nM | 4.58 | –
[14], 4.1 nM | 1.04 | –
[14], 12.3 nM | 0.711 | –
[14], 37 nM | 0.462 | –
[14], 111.1 nM | 0.869 | –
[14], 333.3 nM | 1.18 | –
[14], 1000 nM | 1.47 | –
[14], 3000 nM | 1.7 | –
